# Numbered stars: 1 amine (or outer) side, 2 acyl side, 3 side chain; on linkers, the order of the positions; unused ones are H or OH. Square brackets hold non-standard residues; d marks the D form. Peptide text beside a SMILES is read from it. * marks the point of attachment. Exatecan = CC[C@@]1(O)C(=O)OCc2c1cc1n(c2=O)Cc2c-1nc1cc(F)c(C)c3c1c2[C@@H](N*)CC3; Propanoyl(3-maleimido) = O=C1C=CC(=O)N1CCC(=O)*; PABC = O=C(OCc1ccc(N[*:1])cc1)[*:2]
# Assay: Aggregation studies: % monomer by SEC after conjugation to test monoclonal antibody
# Assay type: physicochemical
# Conditions: 95% monomer or greater assessed as low aggregation
# Experimental: Aggregation is a process in which molecules self-associate with each other. In the context of the present invention, aggregation levels are assessed during the conjugation of a linker construct to an antibody. During conjugation, aggregation is quantified in terms of percentage monomer content. High percentage monomer values typically equate to a lower degree of aggregation. Percentage monomer values of 93% or 95% or higher typically mean negligible levels of aggregation or none, whereas values below this threshold typically translate to higher levels of aggregation.
# 2 mg of test monoclonal antibody at 8.87 mg/mL was pH adjusted with 5% 0.5 M Tris, 0.025 M EDTA, pH 8.5 and reduced with 2.3 mol. eq TCEP and then conjugated with 6 mol. eq drug linker. […] Percentage monomer values of 95% or greater are assessed as low aggregation.
# Aggregation levels were assessed during the conjugation to the test antibody.
# During conjugation, we are ideally targeting a monomer content or percentage monomer of 95% or above. Low percentage monomer values usually translate to a higher degree of aggregation. One could therefore agree that percentage monomer values of 95% or higher mean very low levels of aggregation or none, whereas values below this threshold often translate to higher levels of aggregation.
structure (smiles),measurement,value
CC[C@@]1(O)C(=O)OCc2c1cc1n(c2=O)Cc2c-1nc1cc(F)c(C)c3c1c2[C@@H](NC(=O)OCc1ccc(NC(=O)[C@H](C)NC(=O)[C@@H](NC(=O)CNC(=O)CNC(=O)CNC(=O)CNC(=O)CNC(=O)CCN2C(=O)C=CC2=O)C(C)C)cc1)CC3 [Mal-Gly5-VA-PABC-Exatecan] ({Propanoyl(3-maleimido)}-GGGGGVA[PABC]-Exatecan),Aggregation (grade in words),None

# Source: patent US20260273084A1, “ANTIBODY-DRUG CONJUGATES” (ADC THERAPEUTICS SA, priority 2023, published 2026)
